# Measured values: publication PMC7156458, “Synthetic biology based construction of biological activity-related library of fungal decalin-containing diterpenoid pyrones” (Nature Communications, 2020)
# Target: Aβ42 (Homo sapiens, UniProt P05067)
# Experiment: Th-T (thioflavin-T) assay of Aβ42 aggregation
# Type: biochemical
# Conditions: for Th-T fluorescence of Aβ42 (sheet Fig. 7a), mean of three wells: head suffix _50 (concentration 50); for Th-T assay plate reading, mean of three wells (Supplementary Fig. 47): source data, Ab alone and No Ab as controls; for Th-T fluorescence, mean of three wells: Supplementary Fig. 47 source data
# Chain of Aβ42 (P05067 672-713): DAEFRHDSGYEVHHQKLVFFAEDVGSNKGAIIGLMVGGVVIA
smiles,measurement,setting,value
C=C1CCC2C(C)(CCC=C(C)C)C(O)CCC2(C)C1Cc1c(OC)oc(CO)c(C)c1=O (stereo not drawn) [Compound 12],"Th-T fluorescence of Aβ42 (sheet Fig. 7a), mean of three wells",reading M73,1.414
same,"Th-T fluorescence of Aβ42 (sheet Fig. 7a), mean of three wells",reading M74,1.457
same,"Th-T fluorescence of Aβ42 (sheet Fig. 7a), mean of three wells",reading M75,1.421
same,"Th-T fluorescence of Aβ42 (sheet Fig. 7a), mean of three wells",reading M76,1.415
same,"Th-T fluorescence of Aβ42 (sheet Fig. 7a), mean of three wells",reading M77,1.436
same,"Th-T fluorescence of Aβ42 (sheet Fig. 7a), mean of three wells",reading M78,1.437
same,"Th-T fluorescence of Aβ42 (sheet Fig. 7a), mean of three wells",reading M79,1.425
same,"Th-T fluorescence of Aβ42 (sheet Fig. 7a), mean of three wells",reading M80,1.423
same,"Th-T fluorescence of Aβ42 (sheet Fig. 7a), mean of three wells",reading M81,1.42
same,"Th-T fluorescence of Aβ42 (sheet Fig. 7a), mean of three wells",reading M82,1.419
same,"Th-T fluorescence of Aβ42 (sheet Fig. 7a), mean of three wells",reading M83,1.439
same,"Th-T fluorescence of Aβ42 (sheet Fig. 7a), mean of three wells",reading M84,1.415
same,"Th-T assay plate reading, mean of three wells (Supplementary Fig. 47)",measurement M1,0.2937
same,"Th-T assay plate reading, mean of three wells (Supplementary Fig. 47)",measurement M2,0.2498
same,"Th-T assay plate reading, mean of three wells (Supplementary Fig. 47)",measurement M3,0.2612
same,"Th-T assay plate reading, mean of three wells (Supplementary Fig. 47)",measurement M4,0.2666
same,"Th-T assay plate reading, mean of three wells (Supplementary Fig. 47)",measurement M5,0.2891
same,"Th-T assay plate reading, mean of three wells (Supplementary Fig. 47)",measurement M6,0.324
same,"Th-T assay plate reading, mean of three wells (Supplementary Fig. 47)",measurement M7,0.6238
same,"Th-T assay plate reading, mean of three wells (Supplementary Fig. 47)",measurement M8,1.342
same,"Th-T assay plate reading, mean of three wells (Supplementary Fig. 47)",measurement M9,1.95
same,"Th-T assay plate reading, mean of three wells (Supplementary Fig. 47)",measurement M10,2.214
same,"Th-T assay plate reading, mean of three wells (Supplementary Fig. 47)",measurement M11,2.313
same,"Th-T assay plate reading, mean of three wells (Supplementary Fig. 47)",measurement M12,2.311
same,"Th-T assay plate reading, mean of three wells (Supplementary Fig. 47)",measurement M13,2.302
same,"Th-T assay plate reading, mean of three wells (Supplementary Fig. 47)",measurement M14,2.328
same,"Th-T assay plate reading, mean of three wells (Supplementary Fig. 47)",measurement M15,2.358
same,"Th-T assay plate reading, mean of three wells (Supplementary Fig. 47)",measurement M16,2.3929
same,"Th-T fluorescence, mean of three wells (Fig. 7a)","reading M107, compound at 10 (head suffix _10)",2.747
same,"Th-T fluorescence, mean of three wells (Fig. 7a)","reading M107, compound at 20 (head suffix _20)",2.1149
same,"Th-T fluorescence, mean of three wells (Fig. 7a)","reading M107, compound at 50 (head suffix _50)",1.42
same,"Th-T fluorescence, mean of three wells (Fig. 7a)","reading M108, compound at 10 (head suffix _10)",2.748
same,"Th-T fluorescence, mean of three wells (Fig. 7a)","reading M108, compound at 20 (head suffix _20)",2.099
same,"Th-T fluorescence, mean of three wells (Fig. 7a)","reading M108, compound at 50 (head suffix _50)",1.438
same,"Th-T fluorescence, mean of three wells (Fig. 7a)","reading M109, compound at 10 (head suffix _10)",2.719
same,"Th-T fluorescence, mean of three wells (Fig. 7a)","reading M109, compound at 20 (head suffix _20)",2.112
same,"Th-T fluorescence, mean of three wells (Fig. 7a)","reading M109, compound at 50 (head suffix _50)",1.43
same,"Th-T fluorescence, mean of three wells (Fig. 7a)","reading M110, compound at 10 (head suffix _10)",2.701
same,"Th-T fluorescence, mean of three wells (Fig. 7a)","reading M110, compound at 20 (head suffix _20)",2.0943
same,"Th-T fluorescence, mean of three wells (Fig. 7a)","reading M110, compound at 50 (head suffix _50)",1.437
same,"Th-T fluorescence, mean of three wells (Fig. 7a)","reading M111, compound at 10 (head suffix _10)",2.678
same,"Th-T fluorescence, mean of three wells (Fig. 7a)","reading M111, compound at 20 (head suffix _20)",2.0886
same,"Th-T fluorescence, mean of three wells (Fig. 7a)","reading M111, compound at 50 (head suffix _50)",1.44
same,"Th-T fluorescence, mean of three wells (Fig. 7a)","reading M112, compound at 10 (head suffix _10)",2.674
same,"Th-T fluorescence, mean of three wells (Fig. 7a)","reading M112, compound at 20 (head suffix _20)",2.104
same,"Th-T fluorescence, mean of three wells (Fig. 7a)","reading M112, compound at 50 (head suffix _50)",1.449
same,"Th-T fluorescence, mean of three wells (Fig. 7a)","reading M113, compound at 10 (head suffix _10)",2.652
same,"Th-T fluorescence, mean of three wells (Fig. 7a)","reading M113, compound at 20 (head suffix _20)",2.1068
same,"Th-T fluorescence, mean of three wells (Fig. 7a)","reading M113, compound at 50 (head suffix _50)",1.457
same,"Th-T fluorescence, mean of three wells (Fig. 7a)","reading M114, compound at 10 (head suffix _10)",2.644
same,"Th-T fluorescence, mean of three wells (Fig. 7a)","reading M114, compound at 20 (head suffix _20)",2.09
same,"Th-T fluorescence, mean of three wells (Fig. 7a)","reading M114, compound at 50 (head suffix _50)",1.449
same,"Th-T fluorescence, mean of three wells (Fig. 7a)","reading M115, compound at 10 (head suffix _10)",2.617
same,"Th-T fluorescence, mean of three wells (Fig. 7a)","reading M115, compound at 20 (head suffix _20)",2.12
same,"Th-T fluorescence, mean of three wells (Fig. 7a)","reading M115, compound at 50 (head suffix _50)",1.466
same,"Th-T fluorescence, mean of three wells (Fig. 7a)","reading M116, compound at 10 (head suffix _10)",2.617
same,"Th-T fluorescence, mean of three wells (Fig. 7a)","reading M116, compound at 20 (head suffix _20)",2.1099
same,"Th-T fluorescence, mean of three wells (Fig. 7a)","reading M116, compound at 50 (head suffix _50)",1.496
same,"Th-T fluorescence, mean of three wells (Fig. 7a)","reading M117, compound at 10 (head suffix _10)",2.5929
same,"Th-T fluorescence, mean of three wells (Fig. 7a)","reading M117, compound at 20 (head suffix _20)",2.13
same,"Th-T fluorescence, mean of three wells (Fig. 7a)","reading M117, compound at 50 (head suffix _50)",1.473
same,"Th-T fluorescence, mean of three wells (Fig. 7a)","reading M118, compound at 10 (head suffix _10)",2.576
same,"Th-T fluorescence, mean of three wells (Fig. 7a)","reading M118, compound at 20 (head suffix _20)",2.113
same,"Th-T fluorescence, mean of three wells (Fig. 7a)","reading M118, compound at 50 (head suffix _50)",1.488
same,"Th-T fluorescence, mean of three wells (Fig. 7a)","reading M119, compound at 10 (head suffix _10)",2.572
same,"Th-T fluorescence, mean of three wells (Fig. 7a)","reading M119, compound at 20 (head suffix _20)",2.161
same,"Th-T fluorescence, mean of three wells (Fig. 7a)","reading M119, compound at 50 (head suffix _50)",1.496
same,"Th-T fluorescence, mean of three wells (Fig. 7a)","reading M120, compound at 10 (head suffix _10)",2.541
same,"Th-T fluorescence, mean of three wells (Fig. 7a)","reading M120, compound at 20 (head suffix _20)",2.1524
same,"Th-T fluorescence, mean of three wells (Fig. 7a)","reading M120, compound at 50 (head suffix _50)",1.517
same,"Th-T fluorescence, mean of three wells (Fig. 7a)","reading M121, compound at 10 (head suffix _10)",2.53
same,"Th-T fluorescence, mean of three wells (Fig. 7a)","reading M121, compound at 20 (head suffix _20)",2.137
same,"Th-T fluorescence, mean of three wells (Fig. 7a)","reading M121, compound at 50 (head suffix _50)",1.531
same,"Th-T fluorescence, mean of three wells (Fig. 7a)","reading M122, compound at 10 (head suffix _10)",2.517
same,"Th-T fluorescence, mean of three wells (Fig. 7a)","reading M122, compound at 20 (head suffix _20)",2.124
same,"Th-T fluorescence, mean of three wells (Fig. 7a)","reading M122, compound at 50 (head suffix _50)",1.501
same,"Th-T fluorescence, mean of three wells (Fig. 7a)","reading M123, compound at 10 (head suffix _10)",2.493
same,"Th-T fluorescence, mean of three wells (Fig. 7a)","reading M123, compound at 20 (head suffix _20)",2.112
same,"Th-T fluorescence, mean of three wells (Fig. 7a)","reading M123, compound at 50 (head suffix _50)",1.514
same,"Th-T fluorescence, mean of three wells (Fig. 7a)","reading M124, compound at 10 (head suffix _10)",2.48
same,"Th-T fluorescence, mean of three wells (Fig. 7a)","reading M124, compound at 20 (head suffix _20)",2.17
same,"Th-T fluorescence, mean of three wells (Fig. 7a)","reading M124, compound at 50 (head suffix _50)",1.559
same,"Th-T fluorescence, mean of three wells (Fig. 7a)","reading M125, compound at 10 (head suffix _10)",2.466
same,"Th-T fluorescence, mean of three wells (Fig. 7a)","reading M125, compound at 20 (head suffix _20)",2.169
same,"Th-T fluorescence, mean of three wells (Fig. 7a)","reading M125, compound at 50 (head suffix _50)",1.553
same,"Th-T fluorescence, mean of three wells (Fig. 7a)","reading M126, compound at 10 (head suffix _10)",2.458
same,"Th-T fluorescence, mean of three wells (Fig. 7a)","reading M126, compound at 20 (head suffix _20)",2.184
same,"Th-T fluorescence, mean of three wells (Fig. 7a)","reading M126, compound at 50 (head suffix _50)",1.559
same,"Th-T fluorescence, mean of three wells (Fig. 7a)","reading M127, compound at 10 (head suffix _10)",2.439
same,"Th-T fluorescence, mean of three wells (Fig. 7a)","reading M127, compound at 20 (head suffix _20)",2.22
same,"Th-T fluorescence, mean of three wells (Fig. 7a)","reading M127, compound at 50 (head suffix _50)",1.57
same,"Th-T fluorescence, mean of three wells (Fig. 7a)","reading M128, compound at 10 (head suffix _10)",2.428
same,"Th-T fluorescence, mean of three wells (Fig. 7a)","reading M128, compound at 20 (head suffix _20)",2.151
same,"Th-T fluorescence, mean of three wells (Fig. 7a)","reading M128, compound at 50 (head suffix _50)",1.57
same,"Th-T fluorescence, mean of three wells",time-course reading M97,2.083
same,"Th-T fluorescence, mean of three wells",time-course reading M98,2.088
same,"Th-T fluorescence, mean of three wells",time-course reading M99,2.073
same,"Th-T fluorescence, mean of three wells",time-course reading M100,2.078
same,"Th-T fluorescence, mean of three wells",time-course reading M101,2.074
same,"Th-T fluorescence, mean of three wells",time-course reading M102,2.082
same,"Th-T fluorescence, mean of three wells",time-course reading M103,2.066
same,"Th-T fluorescence, mean of three wells",time-course reading M104,2.071
same,"Th-T fluorescence, mean of three wells",time-course reading M105,2.058
same,"Th-T fluorescence, mean of three wells",time-course reading M106,2.067
same,"Th-T fluorescence, mean of three wells",time-course reading M107,2.067
same,"Th-T fluorescence, mean of three wells",time-course reading M108,2.064
same,"Th-T fluorescence, mean of three wells",time-course reading M109,2.047
same,"Th-T fluorescence, mean of three wells",time-course reading M110,2.071
same,"Th-T fluorescence, mean of three wells",time-course reading M111,2.087
same,"Th-T fluorescence, mean of three wells",time-course reading M112,2.064
same,"Th-T fluorescence, mean of three wells",time-course reading M113,2.068
same,"Th-T fluorescence, mean of three wells",time-course reading M114,2.053
same,"Th-T fluorescence, mean of three wells",time-course reading M115,2.069
same,"Th-T fluorescence, mean of three wells",time-course reading M116,2.057
